The subject of experiment [1] is Bovine Aorta Thoracia Rho Kinase. Put plainly: Rho kinase inhibitory action (inhibition of bovine aorta thoracia Rho kinase). Type of experiment: biochemical. On the procedure: Rho Kinase Inhibitory Action (Inhibition of Bovine Aorta Thoracia Rho Kinase)
The Rho kinase was prepared from bovine aorta of thorax by partial purification as in the following. The artery was minced and homogenized with a 9-fold amount of 50 mM Tris-hydroxymethylaminomethane (Tris) (pH=7.4), 1 mM dithiothreitol, 1 mM EGTA, 1 mM EDTA, 100 μM p-amidinophenylmethylsulfonyl fluoride, 5 μM E-64, 5 μM leupeptine and 5 μM pepstatin A. The homogenate was centrifuged (10,000×g, 30 minutes) to give supernatant. The supernatant was adsorbed onto a hydroxyapatite column. The column was washed with 0.2M phosphate buffer (pH=6.8). The standard product of Rho kinase was eluted with 0.4M phosphate buffer (pH=6.8). The Rho kinase was assayed as follows.
A reaction mixture (total amount 50 μl) containing 50 mM Tris, 1 mM EDTA, 5 mM MgCl2, 50 μg/ml histone, 10 μM GTPγS, 100 μg/ml Rho, 2 μM [^32P]ATP, the Rho kinase (3 μl) prepared in the above and the test compound was reacted at 30° C. for 5 minutes. The reaction was terminated by the addition of 25% trichloroacetic acid (TCA) solution (1 ml) and the mixture was stood at 4° C. for 30 minutes. Then, the mixture was filtered through a membrane filter (HAWP type, Millipore), and the radioactivity of the filter was counted on a liquid scintillation counter. The inhibitory action of the test compound was calculated from the following formula based on the comparison of the radioactivity with the sample without the test compound (control).

Experiment [2] has as its system CEM cells (human T cell type established cell). The experiment is described as follows: Inhibition of VLA integrin activation (phorbol ester-induced adhesion of CEM cells to fibronectin). Type of experiment: cell-based. Particulars: CCRF-CEM, concentration 100 μM, PMA-induced adhesion, read-out: Adhesion induction inhibition (%). On the procedure: Inhibition of VLA (Very Late Antigen) Integrin Activation
As the index of the activation by VLA integrin, phorbol ester-induced adhesion of CEM cells (human T cell type established cell) to fibronectin, which is a ligand of VIA integrin, was measured. The inhibitory action on the induced adhesion by the test compound was determined by the following method.
CEM cells were washed with RPMI1640 medium containing 0.5% bovine serum albumin (BSA), 10 mM HEPES, 2 mM L-glutamin, 1 mM sodium pyruvate, 60 μg/ml kanamycin sulfate and 1.5 mg/ml sodium hydrogencarbonate (hereinafter this medium is referred to as culture solution) and suspended in this medium for use in the following experiment. To each well of a 96 well plate coated with human fibronectin were added CEM cells (5×10^4) and the test compound dissolved in the culture solution (final concentration 1-100 μM) to the amount of 100 μl, and the plate was stood at 37° C. for 1 hour. Then, PMA (phorbol 12-myristate 13-acetate, TPA; final concentration 10 ng/ml) and the test compound were added to the amount of 200 μl, and the plate was stood at 37° C. for 30 minutes. Each well was washed twice with the culture solution (200 μL) at 37° C., and the LDH (lactate dehydrogenase) activity of the cells adhered to the plate was determined, whereby the amount of the adhered cell was measured. Based on the results obtained by the above-mentioned method, the inhibitory action of the test compound on the induced adhesion was calculated by the following formula The results are shown in Table 6. Inhibition (%) of adhesion induction=(a−b)/(a−c)×100 • a=number of cells adhered with the addition of PMA • b=number of cells adhered with the addition of test compound and PMA • c=number of cells adhered without stimulation

A further experiment relates to mouse femoral bone. The experiment is described as follows: Inhibition of bone resorption (in vitro), mouse femoral bone. Particulars: 144 h, 6 days incubation of ICR mouse femoral bone. In outline: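 Femurs from 3–6-week male ICR mice, marrow flushed, cultured 6 days in F12 with 10% FBS under 5% CO2 with test compound (DMSO-dissolved; DMSO-only controls). Calcium released into supernatant measured by o-cresolphthalein chelate method; inhibition calculated against untreated bone, n=4 per group.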

The test system of experiment [3] is thoractic aorta ring contracted with phenylephrine. The experiment is described as follows: Vasodilating action on phenylephrine-contracted thoracic aorta rings. Particulars: Oryctolagus cuniculus; rabbit aortic ring, phenylephrine 10^−6 M contraction; concentration for 50% relaxation; read-out: Vasorelaxing action. On the procedure: Male rabbits (body weight 1.9-3.0 kg) were anesthetized with pentobarbital sodium and exsanguinated, whereafter thoractic aorta was removed. An about 2 mm width aortic ring samples were prepared and hung in a Magnus bath (40 ml) filled with Krebs-Henseleit solution (37° C., NaCl 117 mM; KCl 4.7 mM; CaCl2 2.5 mM; MgSO4 1.2 mM; NaHCO3 24.8 mM; KH2PO4 1.2 mM; glucose 11.0 mM) at a load of 2 g. The Magnus bath was constantly bubbled with a mixed gas (95% O2+5% CO2 gas). The tension of the preparation was measured with an isomeric transducer (TB-611T, Nippon Koden). The preparation was contracted with phenylephrine (10^−6 M) and, after the contraction was stabilized, the test compound was added accumulatively and relaxing action was observed.

In experiment [4] the test system is normal human umberical vascular endothelial cells. Put plainly: Inhibition of angiogenesis (lumen formation in vascular endothelial cells). Type of experiment: cell-based. Particulars: 18 hours, compared with the control, number rises with inhibition of lumen formation.

The text below walks through data of patent US6906061B2, “Pharmaceutical agent containing Rho kinase inhibitor” (Mitsubishi Pharma Corporation, priority 1996, dated 2005).

As usually defined, the inhibition is the percentage by which the read-out fell short of the control. `CC(N)[C@H]1CC[C@H](C(=O)Nc2ccncc2)CC1` (single isomer, unassigned; (+)) [Compound 80.2HCl.H2O, (+)-trans-4-(1-aminoethyl)-1-(4-pyridylcarbamoyl)cyclohexane]: in experiment [1] (test compound 10 μM), the “Inhibition (%)” value was determined as 100%. Moreover, the inhibition at 100 µM in experiment [2] came out at 70%; in the experiment with mouse femoral bone, 40.9%. The IC50 in experiment [3] worked out at 0.7 µM. In addition, the “Number of lumen (10 μM)” value in experiment [4] came out at 174%.
In the case of `CC(N)[C@H]1CC[C@H](C(=O)Nc2ccnc3[nH]ccc23)CC1` (single isomer, unassigned; (+)) [Compound 109.2HCl, (+)-trans-N-(1H-pyrrolo[2,3-b]pyridin-4-yl)-4-(1-aminoethyl)cyclohexanecarboxamide], the “Inhibition (%)” value in experiment [1] (test compound 1 μM) was found to be 81%; in experiment [1] (test compound 10 μM) it was 100%. Also, the inhibition at 100 µM in experiment [2] worked out at 67%; with mouse femoral bone it was 42.6%. Moreover, in experiment [3], the IC50 is 0.1 µM. The “Number of lumen (10 μM)” value in experiment [4] is 153%.
